This passage reports TGI and GI50 results from PubChem BioAssay (NCI).

Test systems include A549 NSCLC; CCRF-CEM leukemia; HCC-2998 colon; HOP-92 NSCLC; K-562 leukemia; M14 melanoma; NCI/ADR-RES ovarian; OVCAR-4 ovarian; SN12C renal; UO-31 renal.
What all share (assay): growth of human tumour cells (NCI), 48 h

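Five concentrations, 48 hours, 96-well plates. GI50 = concentration required for 50% inhibition of growth. The concentration for full growth arrest is given as TGI.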 Where only a bound is given, the exact number is not on record here.

In the case of `COc1ccc(/C(C#N)=C/c2ccc(OC)c(OC)c2)cc1`, the TGI in the test with A549 NSCLC, in the test on CCRF-CEM leukemia, in the test on HCC-2998 colon, in the test on HOP-92 NSCLC, with K-562 leukemia and in the test with M14 melanoma was over 100 µM throughout. For the same compound, the TGI in the test with NCI/ADR-RES ovarian, in the test with OVCAR-4 ovarian, in the test with SN12C renal and with UO-31 renal was over 100 µM each time.

Take `COc1cc(Nc2ccnc(NCCCNc3ccnc4cc(Cl)ccc34)n2)cc(OC)c1`: the GI50 in the test with A549 NSCLC is 2.09 µM; in the test on CCRF-CEM leukemia, 1.19 µM; in the test with HCC-2998 colon, 1.58 µM; with HOP-92 NSCLC it was 0.431 µM; with K-562 leukemia, 0.52 µM; with M14 melanoma it was 1.7 µM. Also, the GI50 was 2.9 µM in the test with NCI/ADR-RES ovarian, 1.58 µM in the test with OVCAR-4 ovarian, 2 µM in the test with SN12C renal and 1.37 µM in the test on UO-31 renal. The TGI in the test on A549 NSCLC turned out to be 5.46 µM; in the test on CCRF-CEM leukemia, 3.88 µM; with HCC-2998 colon it was 3.36 µM; in the test with HOP-92 NSCLC it was 2.69 µM; in the test with K-562 leukemia, 2.39 µM; in the test with M14 melanoma, 3.46 µM. Moreover, the TGI was found to be 12.5 µM in the test with NCI/ADR-RES ovarian, 5.1 µM in the test with OVCAR-4 ovarian, 7.3 µM in the test on SN12C renal and 2.79 µM with UO-31 renal.

For `Nc1nc(-c2ccccc2)nc(N)c1N=O`, the GI50 in the test with A549 NSCLC is 8.86 µM; with CCRF-CEM leukemia it was 5.8 µM; in the test on HCC-2998 colon, 14.1 µM; with HOP-92 NSCLC it was 5.32 µM; in the test on K-562 leukemia it was 5.09 µM; with M14 melanoma, 5.68 µM. In addition, the GI50 in the test with NCI/ADR-RES ovarian was 6.44 µM; with OVCAR-4 ovarian it was 7.39 µM; in the test on SN12C renal, 4.51 µM; with UO-31 renal, 10 µM. Also, the TGI in the test with A549 NSCLC is 23.3 µM; with CCRF-CEM leukemia, over 100 µM; in the test with HCC-2998 colon, 27.6 µM; in the test on HOP-92 NSCLC it was 23.5 µM; with K-562 leukemia, 72.3 µM; in the test with M14 melanoma, 19.5 µM. Moreover, the TGI in the test on NCI/ADR-RES ovarian turned out to be 59.6 µM; in the test with OVCAR-4 ovarian, 79.4 µM; in the test on SN12C renal it was 18.1 µM; in the test on UO-31 renal, 29.2 µM.

Regarding `O=C(NP(=O)(N1CC1)N1CC1)c1cc(I)ccc1I`, the TGI is over 100 µM in the test on A549 NSCLC; over 78.8 µM in the test with CCRF-CEM leukemia; over 100 µM with HCC-2998 colon; over 100 µM in the test on HOP-92 NSCLC; over 100 µM with K-562 leukemia; over 100 µM with M14 melanoma. The TGI in the test on NCI/ADR-RES ovarian was over 66.1 µM; with OVCAR-4 ovarian it was over 100 µM; in the test on SN12C renal it was over 100 µM; in the test on UO-31 renal it was over 100 µM.

For the compound `Cc1cc(Cl)ccc1NC(=O)c1cc2ccccc2cc1O`, the GI50 in the test with A549 NSCLC was 0.931 µM; in the test on CCRF-CEM leukemia, 1.22 µM; in the test on HCC-2998 colon it was 3.92 µM; with HOP-92 NSCLC, 0.146 µM; with K-562 leukemia, 0.419 µM; in the test with M14 melanoma it was 0.657 µM. Besides, the GI50 with NCI/ADR-RES ovarian is 0.433 µM; with OVCAR-4 ovarian, 1.94 µM; with SN12C renal, 0.377 µM; in the test with UO-31 renal it was 0.405 µM. Moreover, the TGI was over 100 µM in the test with A549 NSCLC; over 100 µM with CCRF-CEM leukemia; over 100 µM with HCC-2998 colon; 0.545 µM in the test on HOP-92 NSCLC; over 100 µM in the test on K-562 leukemia; over 100 µM in the test on M14 melanoma. The TGI in the test with OVCAR-4 ovarian, in the test on SN12C renal and in the test with UO-31 renal was over 100 µM in each case.

Turning to `NC(=O)c1cc(-c2ccc(F)cc2)cc(-c2ccncc2)c1N`, the GI50 in the test with A549 NSCLC is over 25 µM; with CCRF-CEM leukemia it was over 25 µM; with HCC-2998 colon it was over 25 µM; with HOP-92 NSCLC it was 23 µM; with K-562 leukemia it was over 25 µM; with M14 melanoma it was over 25 µM. In addition, the GI50 was over 25 µM in the test on NCI/ADR-RES ovarian, over 25 µM with OVCAR-4 ovarian, over 25 µM in the test with SN12C renal and 7.88 µM with UO-31 renal. Also, the TGI in the test with A549 NSCLC, in the test on CCRF-CEM leukemia, in the test on HCC-2998 colon, in the test on HOP-92 NSCLC, with K-562 leukemia and in the test on M14 melanoma was over 25 µM throughout. Moreover, the TGI in the test with NCI/ADR-RES ovarian, in the test on OVCAR-4 ovarian, in the test with SN12C renal and with UO-31 renal was over 25 µM each time.

As for `COc1ccc(-c2nc3ccccn3c2/C=C/C(=O)c2cc(OC)c(OC)c(OC)c2)cc1`, the GI50 with A549 NSCLC is 7.96 µM; in the test on CCRF-CEM leukemia, 18.8 µM; in the test with HCC-2998 colon it was 8.27 µM; in the test with HOP-92 NSCLC, 2.36 µM; with K-562 leukemia, 13.1 µM; in the test on M14 melanoma, 9.8 µM. The GI50 with NCI/ADR-RES ovarian is 3.36 µM; in the test on OVCAR-4 ovarian it was 5.72 µM; with SN12C renal, 11.4 µM; with UO-31 renal, 1.31 µM. Also, the TGI was over 100 µM with A549 NSCLC; over 100 µM in the test on CCRF-CEM leukemia; 42 µM in the test on HCC-2998 colon; 51.4 µM with HOP-92 NSCLC; over 100 µM in the test on K-562 leukemia; 28.6 µM in the test on M14 melanoma. Also, the TGI was 29.4 µM in the test with NCI/ADR-RES ovarian, over 100 µM in the test with OVCAR-4 ovarian, over 100 µM in the test on SN12C renal and over 100 µM in the test on UO-31 renal.

For `CC(=O)O[C@]1(C(C)=O)CC[C@H]2[C@@H]3C=C(C)C4=CC(=O)CC[C@]4(C)[C@H]3CC[C@@]21C`, the GI50 is over 78.1 µM in the test with A549 NSCLC; over 80.4 µM with CCRF-CEM leukemia; over 100 µM with HCC-2998 colon; 14.8 µM in the test on HOP-92 NSCLC; 20.7 µM in the test on K-562 leukemia; over 85.6 µM with M14 melanoma. The GI50 with NCI/ADR-RES ovarian was 46.9 µM; with OVCAR-4 ovarian it was over 91.5 µM; with SN12C renal, over 100 µM; in the test with UO-31 renal, over 100 µM. The TGI with A549 NSCLC, in the test with CCRF-CEM leukemia, with HCC-2998 colon, in the test with HOP-92 NSCLC, in the test with K-562 leukemia and in the test with M14 melanoma was over 100 µM throughout. For the same compound, the TGI in the test on NCI/ADR-RES ovarian, with OVCAR-4 ovarian, in the test on SN12C renal and in the test on UO-31 renal was over 100 µM each time.
